Measured values: patent publication US10071995B2, “Substituted oxopyridine derivatives” (BAYER PHARMA AKTIENGESELLSCHAFT, priority 2014, dated 2018)

Key:
human plasma kallikrein = human plasma kallikrein (Homo sapiens (Human), UniProt P03952); assay: Determination of the plasma kallikrein activity (fluorogenic peptide substrate); format: biochemical; settings: plasma kallikrein from Kordia, substrate H-Pro-Phe-Arg-AMC, 22° C., 30 min
Description: (§1) To determine the plasma kallikrein inhibition of the substances according to the invention, a biochemical test system is used which utilizes the reaction of a peptidic plasma kallikrein substrate to determine the enzymatic activity of human plasma kallikrein. Here, plasma kallikrein cleaves from the peptic plasma kallikrein substrate the C-terminal aminomethylcoumarin (AMC), the fluorescence of which is measured. The determinations are carried out in microtitre plates.
1 μl of the diluted substance solutions is placed into each of the wells of white microtitre plates from Greiner (384 wells). 20 μl of assay buffer (50 mM Tris/HCl pH 7.4; 100 mM sodium chloride solution; 5 mM of calcium chloride solution; 0.1% of bovine serum albumin) and 20 μl of plasma kallikrein from Kordia (0.6 nM in assay buffer) are then added successively. After 15 min of incubation, the enzyme reaction is started by addition of 20 μl of the substrate H-Pro-Phe-Arg-AMC dissolved in assay buffer (10 μM in assay buffer) from Bachem, the mixture is incubated at room temperature (22° C.) for 30 min and fluorescence is then measured (excitation: 360 nm, emission: 460 nm). The measured emissions of the test batches with test substance are compared to those of control batches without test substance (only dimethyl sulphoxide instead of test substance in dimethyl sulphoxide), and IC50 values are calculated from the concentration/activity relationships.

human factor XIa = human factor XIa (Homo sapiens (Human), UniProt P03951); assay: Measurement of FXIa inhibition (fluorogenic peptide substrate); format: biochemical; settings: factor XIa from Kordia, substrate Boc-Glu(OBzl)-Ala-Arg-AMC, 22° C., 30 min
Description: as §1, with “The factor XIa” for “To determine the plasma kallikrein”, “invention is determined using” for “invention,”, “system” for “system is used”, “factor XIa” for “plasma kallikrein”, “factor XIa.” for “plasma kallikrein.”
1 μl of the diluted substance solutions is placed into each of the wells of white microtitre plates from Greiner (384 wells). […] After 15 min of incubation, the enzyme reaction is started by addition of 20 μl of the factor XIa substrate Boc-Glu(OBzl)-Ala-Arg-AMC dissolved in assay buffer (10 μM in assay buffer) from Bachem, the mixture is incubated at room temperature (22° C.) for 30 min and fluorescence is then measured (excitation: 360 nm, emission: 460 nm). The measured emissions of the test batches with test substance are compared to those of control batches without test substance (only dimethyl sulphoxide instead of test substance in dimethyl sulphoxide), and IC50 values are calculated from the concentration/activity relationships.

Sequence of human plasma kallikrein (P03952 391-638): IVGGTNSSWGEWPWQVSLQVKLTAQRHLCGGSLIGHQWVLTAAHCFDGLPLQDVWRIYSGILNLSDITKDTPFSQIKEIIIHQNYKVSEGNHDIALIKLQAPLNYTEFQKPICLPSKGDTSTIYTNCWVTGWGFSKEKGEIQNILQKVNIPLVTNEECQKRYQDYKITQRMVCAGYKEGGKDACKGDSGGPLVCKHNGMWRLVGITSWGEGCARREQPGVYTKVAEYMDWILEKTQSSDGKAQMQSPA
Sequence of human plasma kallikrein (P03952 20-390 partner): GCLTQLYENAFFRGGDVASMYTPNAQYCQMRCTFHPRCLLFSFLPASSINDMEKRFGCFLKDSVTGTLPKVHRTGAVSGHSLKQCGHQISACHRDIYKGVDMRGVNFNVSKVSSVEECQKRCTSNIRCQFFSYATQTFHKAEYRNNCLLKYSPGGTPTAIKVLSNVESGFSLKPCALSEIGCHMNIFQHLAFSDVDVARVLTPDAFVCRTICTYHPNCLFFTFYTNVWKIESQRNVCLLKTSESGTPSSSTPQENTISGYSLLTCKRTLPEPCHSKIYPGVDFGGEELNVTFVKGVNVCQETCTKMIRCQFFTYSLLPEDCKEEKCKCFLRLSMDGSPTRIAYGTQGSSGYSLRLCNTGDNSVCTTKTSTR
Sequence of human factor XIa (P03951 388-625): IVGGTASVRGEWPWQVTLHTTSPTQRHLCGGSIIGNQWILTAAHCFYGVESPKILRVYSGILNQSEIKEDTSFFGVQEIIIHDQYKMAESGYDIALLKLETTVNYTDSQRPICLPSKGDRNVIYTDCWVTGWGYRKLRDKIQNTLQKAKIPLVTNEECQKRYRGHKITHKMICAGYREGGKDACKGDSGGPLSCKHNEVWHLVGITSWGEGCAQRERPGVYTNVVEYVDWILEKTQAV
Sequence of human factor XIa (P03951 19-387 partner): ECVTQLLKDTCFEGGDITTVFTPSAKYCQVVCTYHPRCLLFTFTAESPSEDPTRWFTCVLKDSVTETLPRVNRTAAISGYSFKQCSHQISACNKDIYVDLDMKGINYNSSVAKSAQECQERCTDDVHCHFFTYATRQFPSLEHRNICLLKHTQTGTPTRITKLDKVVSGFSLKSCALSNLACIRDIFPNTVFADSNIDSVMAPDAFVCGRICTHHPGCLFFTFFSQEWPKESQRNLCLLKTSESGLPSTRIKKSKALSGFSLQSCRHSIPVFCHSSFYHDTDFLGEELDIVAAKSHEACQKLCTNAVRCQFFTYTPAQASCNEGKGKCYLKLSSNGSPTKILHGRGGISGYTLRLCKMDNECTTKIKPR

CNC(=O)c1ccc(NC(=O)C(Cc2ccn(C)n2)n2cc(OC)c(-c3cc(Cl)ccc3C#N)cc2=O)s1 (single isomer, unassigned; enantiomer 1) [Example 16, 5-({2-[4-(5 -Chloro-2-cyanophenyl)-5-methoxy-2-oxopyridin-1(2H)-yl]-3-(1-methyl-1H-pyrazol-3-yl)propanoyl}amino)-N-methylthiophene-2-carboxamide (enantiomer 1)]
IC50 (human plasma kallikrein): 1.5 nM | IC50 (human factor XIa): 2.8 nM

COCCC(C(=O)Nc1ccc(C(=O)O)s1)n1cc(Cl)c(-c2cc(Cl)ccc2C#N)cc1=O (racemic) [Example 19, 5-({2-[5-Chloro-4-(5-chloro-2-cyanophenyl)-2-oxopyridin-1(2H)-yl]-4-methoxybutanoyl}amino)-thiophene-2-carboxylic acid (racemate)]
IC50 (human plasma kallikrein): 47 nM | IC50 (human factor XIa): 6.9 nM

COCCC(C(=O)Nc1ccc(C(N)=O)s1)n1cc(Cl)c(-c2cc(Cl)ccc2C#N)cc1=O (racemic) [Example 2, 5-({2-[5-Chloro-4-(5-chloro-2-cyanophenyl)-2-oxopyridin-1(2H)-yl]-4-methoxybutanoyl}amino)-thiophene-2-carboxamide (racemate)]
IC50 (human plasma kallikrein): 28 nM | IC50 (human factor XIa): 26 nM

COc1cn(C(Cc2ccccn2)C(=O)Nc2ccc(C(=O)O)s2)c(=O)cc1-c1cc(Cl)ccc1C#N (racemic) [Example 18, 5-({2-[4-(5-Chloro-2-cyanophenyl)-5-methoxy-2-oxopyridin-1(2H)-yl]-3-(pyridin-2-yl)propanoyl}-amino)thiophene-2-carboxylic acid (racemate)]
IC50 (human factor XIa): 2.6 nM

COc1cn(C(Cc2ccccn2)C(=O)Nc2cc(F)c(C(N)=O)s2)c(=O)cc1-c1cc(Cl)ccc1C#N (racemic) [Example 3, 5-({2-[4-(5-Chloro-2-cyanophenyl)-5-methoxy-2-oxopyridin-1(2H)-yl]-3-(pyridin-2-yl)propanoyl}-amino)-3-fluorothiophene-2-carboxamide (racemate)]
IC50 (human factor XIa): 34 nM

COCCC(C(=O)Nc1ccc(C(=O)O)s1)n1cc(OC)c(-c2cc(Cl)ccc2C#N)cc1=O (racemic) [Example 7, 5-({2-[4-(5-Chloro-2-cyanophenyl)-5-methoxy-2-oxopyridin-1(2H)-yl]-4-methoxybutanoyl}amino)-thiophene-2-carboxylic acid (racemate)]
IC50 (human factor XIa): 3 nM

CNC(=O)c1ccc(NC(=O)C(Cc2cnco2)n2cc(OC)c(-c3cc(Cl)ccc3C#N)cc2=O)s1 (racemic) [Example 17, 5-({2-[4-(5-Chloro-2-cyanophenyl)-5-methoxy-2-oxopyridin-1(2H)-yl]-3-(1,3-oxazol-5-yl)-propanoyl}amino)-N-methylthiophene-2-carboxamide (racemate)]
IC50 (human factor XIa): 6.2 nM

COCCC(C(=O)Nc1cc(F)c(C(N)=O)s1)n1cc(OC)c(-c2cc(Cl)ccc2C#N)cc1=O (single isomer, unassigned; enantiomer 1) [Example 10, 5-({2-[4-(5-Chloro-2-cyanophenyl)-5-methoxy-2-oxopyridin-1(2H)-yl]-4-methoxybutanoyl}-amino)-3-fluorothiophene-2-carboxamide (enantiomer 1)]
IC50 (human plasma kallikrein): 47 nM | IC50 (human factor XIa): 27 nM

COc1cn(C(Cc2ccncc2)C(=O)Nc2cc(F)c(C(N)=O)s2)c(=O)cc1-c1cc(Cl)ccc1C#N (racemic) [Example 4, 5-({2-[4-(5-Chloro-2-cyanophenyl)-5-methoxy-2-oxopyridin-1(2H)-yl]-3-(pyridin-4-yl)propanoyl}-amino)-3-fluorothiophene-2-carboxamide (racemate)]
IC50 (human plasma kallikrein): 36 nM | IC50 (human factor XIa): 29 nM

COCCC(C(=O)Nc1cc(F)c(C(N)=O)s1)n1cc(OC)c(-c2cc(Cl)ccc2C#N)cc1=O (racemic) [Example 9, 5-({2-[4-(5-Chloro-2-cyanophenyl)-5-methoxy-2-oxopyridin-1(2H)-yl]-4-methoxybutanoyl}amino)-3-fluorothiophene-2-carboxamide (racemate)]
IC50 (human plasma kallikrein): 100 nM | IC50 (human factor XIa): 54 nM

CNC(=O)c1ccc(NC(=O)C(Cc2ccn(C)n2)n2cc(OC)c(-c3cc(Cl)ccc3C#N)cc2=O)s1 (racemic) [Example 15, 5-({2-[4-(5-Chloro-2-cyanophenyl)-5-methoxy-2-oxopyridin-1(2H)-yl]-3-(1-methyl-1H-pyrazol-3-yl)propanoyl}amino)-N-methylthiophene-2-carboxamide (racemate)]
IC50 (human plasma kallikrein): 1.6 nM | IC50 (human factor XIa): 5.4 nM

COc1cn(C(Cc2ccccn2)C(=O)Nc2cc(F)c(C(N)=O)s2)c(=O)cc1-c1cc(Cl)ccc1F (racemic) [Example 6, 5-({2-[4-(5-Chloro-2-fluorophenyl)-5-methoxy-2-oxopyridin-1(2H)-yl]-3-(pyridin-2-yl)propanoyl}-amino)-3-fluorothiophene-2-carboxamide (racemate)]
IC50 (human plasma kallikrein): > 10000 nM | IC50 (human factor XIa): 1200 nM
